Measurements published in patent US5439930A, “Biologically active n-acylprolydipeptides having antiamnestic, antihypoxic and anorexigenic effects” (Russian-American Institute for New Drug Development, priority 1992, dated 1995).
Where a SMILES comes first, the peptide text is derived from it. The star is where a group is joined. Isovaleryl = CC(C)CC(=O)*; Hexanoyl = CCCCCC(=O)*; PhAc = O=C(Cc1ccccc1)*; Bz = O=C(c1ccccc1)*

Assays:
Format in all cases: in vivo
[1] = test system: memory decline evoked by scopolamine in randomly bred male albino rats; assay: Passive avoidance step-through, amnesia by scopolamine
Method: (§1) Compounds according to the present invention, including the compounds described in Examples 1-11, were checked for their ability to prevent memory decline evoked by maximal electroshock (MES) or scopolamine in the passive avoidance step-through paradigm (equipment of Laffaette Co., USA). The experiments described herein (Examples 12, 13, 15, and 19) were carried out using randomly bred male albino rats of a weight of approximately 180-220 g. […] Amnesia was produced by transcorneal maximal electroshock immediately after learning or scopolamine (1 mg/kg, subcutaneously) administration 30 min. before learning. The retention was tested 24 hours later by the measurement of latency of the entering of the dark compartment.
(§2) The degree of antiamnestic activity was estimated according to Buttler's modified formula: [formula]
(§3) The higher the magnitude of this indicator the more is the antiamnestic activity.

[2] = test system: memory decline evoked by maximal electroshock (MES) in randomly bred male albino rats; assay: Passive avoidance step-through, amnesia by maximal electroshock (MES); details: for inhibition in vivo at 0.1 mg/kg: Rattus norvegicus, ip, 24 h, read-out: AA % (antiamnestic activity, Butler's modified formula); for inhibition in vivo at 0.1 mg/kg / Latency (sec.) Amnesia + subst. / AA % (antiamnestic activity, Butler's modified formula): 0.1 mg/kg i.p. 15 min before training; for Latency (sec.) Amnesia + subst.: MES after learning, retention 24 h later
Method: as §1, §2, §3

[3] = Level of active dose for the described nootropic activities; details: above-described nootropic activities
Method: The compounds of the present invention were assessed for their ability to prevent memory impairment induced by maximal electroshock, or scopolamine administration. Unlike N-acylpyrrolidine compounds of the type described by Tanaka et al., supra, the compounds of the present invention are not believed to inhibit prolyl endopeptidase activity. […] The Compound I prevents mental decline, induced by frontal lobectomy (Example 15), prenatal alcoholization or prenatal hypoxia (Example 16) and aging (Example 17).
In contrast to this, substances in accordance with the present invention exert their effects in a dose between about 0.1-0.5 mg/kg.

[4] = test system: undertraining of the passive avoidance reflex, rats; assay: Passive avoidance with undertraining, different regimes of administration; details: 200 mg/kg i.p.
[5] = test system: phenazepam withdrawn male albino rats; assay: Threshold of aggressive behavior during phenazepam withdrawal; details: immediately after the last administration of phenazepam (2 mg/kg i.p. daily for 57 days)
Method: The influence of Compound I on withdrawal syndrome caused by the interruption of chronic administration of benzodiazepine tranquilizer phenazepam (T. A. Voronina et al., In Fenazepam; A. V. Bogatsky, Ed.; Naukova dumka Publishers: Kiev, 1982; pp. 67-169) was studied in experiments on male albino rats weighing 190-200 g at the beginning and 300-350 g at the end of the experiment.
Phenazepam (2 mg/kg intraperitoneally) or saline (control group of rats) were given once daily for 57 days. The withdrawal syndrome occurred 24-72 hours after the last injection. The withdrawal syndrome in rats consisted in "anxiogenic-like" state aggressiveness and accelerated development of kindled seizures caused by pentylentetrazol. Compound I was administered to the withdrawn rats in doses of 0.5 mg/kg intraperitoneally 15 minutes prior to testing.
The threshold of the aggressive behavior was determined in the experiment on the rats (R. Tedeshi et al., J. Pharmacol. Exp. Ther., 125, 28-34 (1959)). The paired rats were placed on the electrified floor; the strength of the current, which provokes the fighting, was registered.

[6] = 0.1 mg/kg 15 min before learning, scopolamine 1 mg/kg s.c.
[7] = 0.1 mg/kg 15 min before learning, scopolamine 1 mg/kg s.c. 30 min before trial
[8] = 200 mg/kg, scopolamine 1 mg/kg s.c.

SMILES: CCOC(=O)C[C@H](NC(=O)[C@@H]1CCCN1C(=O)Cc1ccccc1)C(=O)OCC [V, N-phenylacetyl-L-prolyl-L-aspartic acid diethyl ester] (PhAc-Pro-Asp(OEt)-OEt)
- Aa (antiamnestic activity) [1, 6]: -10
- Latency (sec.) Scopolamine + substance [1, 7]: 48.1 s
- inhibition in vivo at 0.1 mg/kg ([2]; MES amnesia): 29.5%

SMILES: NC(=O)CCNC(=O)[C@@H]1CCCN1C(=O)Cc1ccccc1 [IV, N-phenylacetyl-L-prolyl-β-alanine amide]
- Aa (antiamnestic activity) [1, 6]: 52.1
- Latency (sec.) Scopolamine + substance [1, 7]: 94.9 s
- inhibition in vivo at 0.1 mg/kg ([2]; MES amnesia): 52%

SMILES: NC(=O)C[C@H](NC(=O)[C@@H]1CCCN1C(=O)Cc1ccccc1)C(N)=O [VI, N-phenylacetyl-L-prolyl-L-asparagine amide] (PhAc-Pro-Asn-NH2)
- Aa (antiamnestic activity) [1, 6]: -4.3
- Latency (sec.) Scopolamine + substance [1, 7]: 46.3 s
- inhibition in vivo at 0.1 mg/kg ([2]; MES amnesia): 26%

SMILES: NC(=O)CN1CCCC1=O [Piracetam, N-carbamido-methyl-pyrrolidone-2, reference compound]
- Level of active dose [3]: 200 to 800 mg/kg
- Aa (antiamnestic activity) [1, 8]: 39.3
- Latency (sec.) Scopolamine + substance [1, 8]: 64.2 s
- AA % (antiamnestic activity) ([2]; 200 mg/kg, MES amnesia): 30.5%
- Mnestic activity (Ma), administration 15 min. before retrieval [4]: -15%
- Mnestic activity (Ma), administration 15 min. before trial [4]: 20.0%
- Mnestic activity (Ma), administration immediately after trial [4]: 1.0%

SMILES: CCOC(=O)[C@@H](NC(=O)[C@@H]1CCCN1C(=O)Cc1ccccc1)C(C)C [IX, N-phenylacetyl-L-prolyl-L-valine ethyl ester] (PhAc-Pro-Val-OEt)
- inhibition in vivo at 0.1 mg/kg ([2]; MES amnesia): 0.0001%

SMILES: CNC(=O)CNC(=O)[C@@H]1CCCN1C(=O)Cc1ccccc1 [XIV, N-phenylacetyl-L-prolylglycine N-methylamide] (PhAc-Pro-Gly-NHMe)
- inhibition in vivo at 0.1 mg/kg ([2]; MES amnesia): -7.6%

SMILES: O=C(O)CNC(=O)[C@@H]1CCCN1C(=O)Cc1ccccc1 [XVIII, N-phenylacetyl-L-prolylglycine] (PhAc-Pro-Gly-OH)
- inhibition in vivo at 0.1 mg/kg ([2]; MES amnesia): 9.8%

SMILES: CC(C)C[C@H](NC(=O)[C@@H]1CCCN1C(=O)Cc1ccccc1)C(N)=O [XVII, N-phenylacetyl-L-prolyl-L-leucine amide] (PhAc-Pro-Leu-NH2)
- inhibition in vivo at 0.1 mg/kg ([2]; MES amnesia): 7.9%

SMILES: NC(=O)CNC(=O)[C@@H]1CCCN1C(=O)Cc1ccccc1 [II, N-phenacetyl-L-prolylglycine amide] (PhAc-Pro-Gly-NH2)
- Aa (antiamnestic activity) [1, 6]: -9.0
- Latency (sec.) Scopolamine + substance [1, 7]: 45.6 s
- Latency (sec.) Amnesia + subst. [2]: 56 s
- AA % (antiamnestic activity, Butler's modified formula) ([2]; MES amnesia): 27%

SMILES: COC(=O)CCCNC(=O)[C@@H]1CCCN1C(=O)Cc1ccccc1 [XIX, N-phenylacetyl-L-prolyl-GABA methylester]
- Latency (sec.) Amnesia + subst. [2]: 95.8 s
- AA % (antiamnestic activity, Butler's modified formula) ([2]; MES amnesia): 45.4%

SMILES: CCOC(=O)CC[C@H](NC(=O)[C@@H]1CCCN1C(=O)Cc1ccccc1)C(=O)OCC [XVI, N-phenylacetyl-L-prolyl-L-glutamic acid diethyl ester] (PhAc-Pro-Glu(OEt)-OEt)
- inhibition in vivo at 0.1 mg/kg ([2]; MES amnesia): 58.3%

SMILES: CCOC(=O)CCNC(=O)[C@@H]1CCCN1C(=O)Cc1ccccc1 [III, N-phenacetyl-L-prolyl-β-alanine ethyl ester]
- Aa (antiamnestic activity) [1, 6]: 23.7
- Latency (sec.) Scopolamine + substance [1, 7]: 78.6 s
- Latency (sec.) Amnesia + subst. [2]: 56 s
- AA % (antiamnestic activity, Butler's modified formula) ([2]; MES amnesia): 29%

SMILES: CCOC(=O)CCNC(=O)[C@@H]1CCCN1C(=O)c1ccccc1 [XI, N-benzoyl-L-prolyl-β-alanine ethyl ester]
- inhibition in vivo at 0.1 mg/kg ([2]; MES amnesia): 21.9%

SMILES: CCOC(=O)CNC(=O)[C@@H]1CCCN1C(=O)c1ccccc1 [VII, N-benzoyl-L-prolylglycine ethyl ester] (Bz-Pro-Gly-OEt)
- inhibition in vivo at 0.1 mg/kg ([2]; MES amnesia): 37%

SMILES: O=C1CN=C(c2ccccc2Cl)c2cc(Br)ccc2N1 [Phenazepam, reference compound]
- Aggression Threshold (mA) [5]: 2.16 ± 0.2 mA

SMILES: CCOC(=O)[C@@H](NC(=O)[C@@H]1CCCN1C(=O)c1ccccc1)C(C)C [X, N-benzoyl-L-prolyl-L-valine ethyl ester] (Bz-Pro-Val-OEt)
- inhibition in vivo at 0.1 mg/kg ([2]; MES amnesia): 38%

SMILES: CCOC(=O)CNC(=O)[C@@H]1CCCN1CCCCc1ccccc1 [XXIII, N-phenylbutyl-L-prolyl-glycine ethylester]
- inhibition in vivo at 0.1 mg/kg ([2]; MES amnesia): 12.6%

SMILES: CCCCCC(=O)N1CCC[C@H]1C(=O)NCC(=O)OCC [XXI, N-caproyl-L-prolylglycine ethyl ester] (Hexanoyl-Pro-Gly-OEt)
- inhibition in vivo at 0.1 mg/kg ([2]; MES amnesia): 20.2%

SMILES: NC(=O)CCNC(=O)[C@@H]1CCCN1C(=O)c1ccccc1 [XII, N-benzoyl-L-prolyl-β-alanine amide]
- inhibition in vivo at 0.1 mg/kg ([2]; MES amnesia): 15.2%

SMILES: CN(C)C(=O)CNC(=O)[C@@H]1CCCN1C(=O)Cc1ccccc1 [XV, N-phenylacetyl-L-prolylglycine dimethylamide] (PhAc-Pro-Gly-NMe2)
- inhibition in vivo at 0.1 mg/kg ([2]; MES amnesia): 23%

SMILES: NC(=O)CNC(=O)[C@@H]1CCCN1C(=O)c1ccccc1 [XIII, N-benzoyl-L-prolylglycine amide] (Bz-Pro-Gly-NH2)
- inhibition in vivo at 0.1 mg/kg ([2]; MES amnesia): -17.6%

SMILES: CCOC(=O)CNC(=O)[C@@H]1CCCN1C(=O)CC(C)C [VIII, N-isovaleryl-L-prolylglycine ethyl ester] (Isovaleryl-Pro-Gly-OEt)
- inhibition in vivo at 0.1 mg/kg ([2]; MES amnesia): 28%

SMILES: CCOC(=O)[C@H](C)NC(=O)[C@@H]1CCCN1C(=O)Cc1ccccc1 [XX, N-phenylacetyl-L-prolyl-L-alanine ethyl ester] (PhAc-Pro-Ala-OEt)
- inhibition in vivo at 0.1 mg/kg ([2]; MES amnesia): 10.8%
